{"source": "patent US10307352B2", "about": "“Low oil compositions comprising a 4-substituted resorcinol and a high carbon chain ester” (Johnson & Johnson Consumer Inc., priority 2012, dated 2019)"}
{"system": "IL-8 cytokine release", "test": "IL-8 assay: TNFα-induced IL-8 cytokine release from topically treated epidermal equivalents (EPI 200 HCF)", "type": "cell-based, human", "details": "ester added to 4-hexyl resorcinol-containing composition; result in words", "protocol": "An IL-8 assay was performed on the compositions of Example I to investigate the release of pro-inflammatory mediators in human epithelial cells as follows.\nEpidermal equivalents (EPI 200 HCF), multilayer and differentiated epidermis consisting of normal human epidermal keratinocytes, were purchased from MatTek (Ashland, Mass.). Upon receipt, epidermal equivalents were incubated for 24 hours at 37° C. in maintenance medium without hydrocortisone. Equivalents were topically treated (2 mg/cm^2) with formulation in example 1 for 2 hours before exposure to 100 ng/mL of Tumor Necrosis Factor-α (TNFα, available from Sigma-Aldrich of St Louis, Mo.). Equivalents were incubated for 4 hours at 37° C. with maintenance medium then supernatants were analyzed for IL-8 cytokine release using commercially available kits (Upstate Biotechnology, Charlottesville, Va.). Percent Reduction in IL-8 was calculated for the compositions relative to Comparative Composition C1 (without ester): Percent Reduction=[1−(Valuesample/Valuebase)]×100 where Valuesample was the IL-8 level of the composition tested and Valuebase was the IL-8 value of Comparative Composition C1.\nAdditional IL-8 Assays were performed as described in Example II. Compositions (described in Table 2) containing 4-hexyl resorcinol with different esters, each present at 3% by weight, were compared with Composition 6 according to the invention containing 3% by weight pentaerythritol tetraethylhexanoate."}
{"compound": "isononyl isonanoate", "boost in the activity (IL-8 inhibition) of 4-hexyl resorcinol over compositions without the ester": "only a modest boost or no boost at all"}
{"compound": "CCCCCCC(=O)OCC(C)(C)COC(=O)CCCCCC", "note": "[neopentyl glycol diheptanoate]", "boost in the activity (IL-8 inhibition) of 4-hexyl resorcinol over compositions without the ester": "only a modest boost or no boost at all"}
{"compound": "CCCCC(CC)C(=O)OCC(COC(=O)C(CC)CCCC)(COC(=O)C(CC)CCCC)COC(=O)C(CC)CCCC", "note": "(stereo not shown) [pentaerythritol tetraethylhexanoate]", "boost in the activity (IL-8 inhibition) of 4-hexyl resorcinol over compositions without the ester": "substantial boost"}
{"compound": "octyldodecyl neopentanoate", "boost in the activity (IL-8 inhibition) of 4-hexyl resorcinol over compositions without the ester": "substantial boost"}
